Assay results as given in patent US20240226233A1, “COMPOSITION COMPRISING ZAG-DERIVED PEPTIDE FOR IMPROVING SCARS AND KELOIDS” (L&C BIO CO., LTD., priority 2021, published 2024).

B1: zinc-alpha-2-glycoprotein (ZAG) protein (protein, listed as Homo sapiens)
chain: MVRMVPVLLSLLLLLGPAVPQENQDGRYSLTYIYTGLSKHVEDVPAFQALGSLNDLQFFRYNSKDRKSQPMGLWRQVEGMEDWKQDSQLQKAREDIFMETLKDIVEYYNDSNGSHVLQGRFGCEIENNRSSGAFWKYYYDGKDYIEFNKEIPAWVPFDPAAQITKQKWEAEPVYVQRAKAYLEEECPATLRKYLKYSKNILDRQDPPSVVVTSHQAPGEKKKLKCLAYDFYPGKIDVHWTRAGEVQEPELRGDVLHNGNGTYQSWVVVAVPPQDTAPYSCHVQHSSLAQPLVVPWEAS

Tests used:
[1] = tested on: collagen I, III, TGF-β, pSMAD2/3; test: RNA (PCR) and protein (Western blotting) expression in scratched, TGF-β-treated HDFs; format: cell-based, human; settings: HDF, TGF-β + peptide vs TGF-β-treated group; for mRNA expression of collagen I, III, and TGF-β: PCR; for protein expression of collagen I, III, TGF-β, and pSMAD2/3: Western blotting
Method: (§1) HDFs and KFs were seeded in a 6-well plate. After 24 hours, the center of each well was scratched to create a wound. Thereafter, the HDF test group was treated with 10 ng/mL of TGF-β, which is overexpressed during scar formation, to create a scar environment, and then treated with the selected Z16 peptide. The migration of cells in the affected area was confirmed 24 hours later.
(§2) Cells were treated with Z16 under the same conditions as in Example 2-1, and the expression of RNA and proteins involved in the formation of hypertrophic scars or keloids was analyzed. The expression was confirmed through PCR and Western blotting.
as §1, with “a wound generation model.” for “a wound.”, “a scarring” for “a scar”, “with Z15mer_1 to Z15mer_4 additionally synthesized in Preparation Example 2.” for “with the selected Z16 peptide.”
(§3) Cells were treated with Z16 under the same conditions as in Example 3-1, and the expression of RNA and proteins involved in the formation of hypertrophic scars or keloids was analyzed. The expression was confirmed through PCR and Western blotting.

[2] = tested on: human dermal fibroblasts (HDFs); test: CCK-8 assay, cell proliferation of HDFs; format: cell-based; settings: HDF, 10 μg/mL, compared to untreated negative control / other candidates
Method: (§4) A CCK-8 assay was performed to select amino acid sequences corresponding to the core active region of ZAG, which has an inhibitory effect on the formation of scars, among the 18 peptide candidates. Human dermal fibroblasts (HDFs) and keloid fibroblasts (KFs) were treated with the ZAG protein-derived peptide candidates (Z1 to Z18) and the ZAG protein (ZAG) at a concentration of 10 μg/mL, and cell proliferation was then confirmed using a CCK-8 assay. A group treated with the ZAG protein alone was used as a positive control, and an untreated group was used as a negative control.
(§5) Specifically, HDFs and KFs were treated with the ZAG protein (ZAG), Z16, and the ZAG protein-derived peptide candidates (Z15mer_1 to Z15mer_4) additionally synthesized in Preparation Example 2 at a concentration of 10 μg/mL, and cell proliferation was then confirmed through a CCK-8 assay.

[3] = tested on: collagen I, III, TGF-β, pSMAD2/3; test: RNA (PCR) and protein (Western blotting) expression in scratched KFs; format: cell-based; settings: KF, vs untreated negative control; for mRNA expression of collagen I, III, and TGF-β: PCR; for protein expression of collagen I, III, TGF-β, and pSMAD2/3: Western blotting
Method: as §1, §2
as §1, with “a wound generation model.” for “a wound.”, “a scarring” for “a scar”, “with Z15mer_1 to Z15mer_4 additionally synthesized in Preparation Example 2.” for “with the selected Z16 peptide.”
as §3

[4] = tested on: hypertrophic scars or keloids; test: Overall inhibitory effect on formation of hypertrophic scars or keloids (HDF/KF tests); format: cell-based; settings: compared with ZAG16, scratch assay HDF and KF
Method: as §4
as §1, with “a wound generation model.” for “a wound.”, “a scarring” for “a scar”, “with Z15mer_1 to Z15mer_4 additionally synthesized in Preparation Example 2.” for “with the selected Z16 peptide.”

HDFs = test: Scratch assay, cell migration of HDFs in TGF-β scar environment; format: cell-based, human; settings: HDF scratched, 10 ng/mL TGF-β, 24 hours, compared to TGF-β-treated group
Method: as §1
as §1, with “a wound generation model.” for “a wound.”, “a scarring” for “a scar”, “with Z15mer_1 to Z15mer_4 additionally synthesized in Preparation Example 2.” for “with the selected Z16 peptide.”

KFs = test: Scratch assay, cell migration of KFs; format: cell-based; settings: KF scratched, general medium, 24 hours
Method: as §1
as §1, with “a wound generation model.” for “a wound.”, “a scarring” for “a scar”, “with Z15mer_1 to Z15mer_4 additionally synthesized in Preparation Example 2.” for “with the selected Z16 peptide.”

keloid fibroblasts (KFs) = test: CCK-8 assay, cell proliferation of KFs; format: cell-based; settings: KF, 10 μg/mL, compared to untreated negative control / other candidates
Method: as §4, §5

Molecule | mRNA expression of collagen I, III, and TGF-β [1] | protein expression of collagen I, III, TGF-β, and pSMAD2/3 [1] | cell proliferation (CCK-8) [2] | mRNA expression of collagen I, III, and TGF-β [3] | protein expression of collagen I, III, TGF-β, and pSMAD2/3 [3] | inhibition of the formation of hypertrophic scars and keloids [4] | migration of cells in the affected area (HDFs) | migration of cells in the affected area (KFs) | cell proliferation (CCK-8) (keloid fibroblasts (KFs))
APGEKKKLKCLAYDF (ZAG protein-derived peptide) [Peptide Z15mer_1] | decreased | decreased | lowest proliferation | decreased | decreased | more effectively than ZAG16 | greatest inhibition of cell migration | greatest inhibition of cell migration | lowest proliferation
APGEKKKLKCLAYDFYPGKIDVHWTRAGEV (ZAG protein-derived peptide) [Peptide Z16] | decreased | decreased | lowest cell proliferation | decreased | decreased | – | inhibited | inhibited | lowest cell proliferation
B1 | – | – | decreased cell proliferation | – | – | – | – | – | decreased cell proliferation
